Converted amounts (≈) assume the structure as drawn. Like-named read-outs stand apart in the source and are kept apart here. Where a SMILES comes first, the peptide text is derived from it. Bridges are numbered along the chain shown (N, C = ends).
Columns and labels:
[1] = test system: Pseudomonas aeruginosa ATCC 27853; format: cell-based
Procedure: (§1) For each bacterial strain, 3-5 morphologically similar colonies were drawn from fresh cultures, inoculated in Brain Hearth Infusion broth liquid medium and incubated at the temperature of 37° C. under shaking at 225 r.p.m. for 3-4 h. Subsequently, the bacterial suspension was centrifuged at 1000 g for 20 min and the thus obtained pellet was resuspended in phosphate buffer 10 mM. Turbidity was measured in a spectrophotometer with absorbance at 600 nm, equivalent in the range 0.08-0.13 to a concentration of about 10^8 CFU/ml. The bacterial suspension was diluted 1:100 in phosphate buffer 10 mM, and within 30 min 50 microliters of such bacterial suspension (10^6 CFU/ml) were inoculated in each well of the microtiter plate, to obtain a final bacterial concentration of about 5×10^5 CFU/ml.
(§2) Several peptides were tested for their ability to inhibit bacterial growth in liquid culture. Fifty microliters of peptide at a concentration comprised between about 0.2 mM and 50 mM were added in 96-well U-bottom plates containing liquid growth medium and one of the following bacteria: Escherichia coli ATCC 25922, P. aeruginosa ATCC 27853, Stenotrophomonas maltophilia ATCC 13637. After 2 hour incubation at 37° C., bacteria were transferred on a solid medium. As a growth control, bacterial cultures were cultured in the absence of peptides.
(§3) The bacterial suspension was put in contact for two hours with different concentrations of the peptide at the temperature of 37° C. After incubation, 20 μl were drawn from the wells of each dilution and seeded on solid medium, agar McConkey. The inoculum was evenly distributed on the agarized medium by means of a sterile disposable loop. After incubation for 24 h at the temperature of 37° C., counting of the bacterial colonies (CFU) was performed.

[2] = test system: Escherichia coli ATCC 25922; format: cell-based
Procedure: as §1, §2, §3

[3] = further tests, test of Table 2a

Row | Compound | MBC P. aeruginosa ATCC 27853 [1, 3] | MBC E. coli ATCC 25922 [2, 3] | MBC P. aeruginosa ATCC 27853 ([1]; ATCC 27853) | MBC E. coli ATCC 25922 ([2]; ATCC 25922)
1 | AKCRPLHTRGKQSAVCV [Peptide P14, reference compound] | inactive | inactive | – | –
2 | CC(C)C[C@H](NC(=O)[C@@H]1CSSC[C@H](NC(=O)[C@H](CCCCN)NC(=O)CN)C(=O)N[C@@H](Cc2c[nH]c3ccccc23)C(=O)N[C@@H](CCCCN)C(=O)N[C@@H](Cc2c[nH]c3ccccc23)C(=O)N[C@@H](CCCCN)C(=O)N[C@@H](Cc2ccc(O)cc2)C(=O)N[C@@H](CCCNC(=N)N)C(=O)NCC(=O)N[C@@H](Cc2c[nH]cn2)C(=O)N[C@@H](Cc2ccc(O)cc2)C(=O)N[C@@H](Cc2c[nH]c3ccccc23)C(=O)N[C@@H](CCCNC(=N)N)C(=O)N[C@@H]([C@@H](C)O)C(=O)N1)C(=O)O [SEQ.ID.NO.: 8, Gly*Lys*Cys*Trp*Lys*Trp*Lys*Tyr*Arg*Gly*His*Tyr*Trp*Arg*Thr*Cys*Leu*] (H-GKCWKWKYRGHYWRTCL-OH; disulfide 3-16; N-terminus and C-terminus assumed) | – | – | 1.81 µg/mL (≈ 0.797 µM) | 9.26 µg/mL (≈ 4.08 µM)
3 | CC[C@H](C)[C@@H]1NC(=O)CNC(=O)[C@H](CCCNC(=N)N)NC(=O)[C@H](Cc2c[nH]c3ccccc23)NC(=O)[C@H](CCCCN)NC(=O)[C@H](Cc2c[nH]c3ccccc23)NC(=O)[C@H](CCCCN)NC(=O)[C@H](CC(C)C)NC(=O)[C@@H](NC(=O)[C@H](CC(N)=O)NC(=O)[C@@H](N)CCCCN)CSSC[C@@H](C(=O)N[C@@H](CC(C)C)C(=O)O)NC(=O)[C@H](CCCCN)NC(=O)[C@H](CCCNC(=N)N)NC(=O)[C@H](Cc2ccc(O)cc2)NC(=O)[C@H]([C@@H](C)O)NC1=O [SEQ.ID.NO.: 9, Lys*Asn*Cys*Leu*Lys*Trp*Lys*Trp*Arg*Gly*Ile*Thr*Tyr*Arg*Lys*Cys*Leu*] (H-KNCLKWKWRGITYRKCL-OH; disulfide 3-16; N-terminus and C-terminus assumed) | – | – | 2.57 µg/mL (≈ 1.17 µM) | 7.56 µg/mL (≈ 3.44 µM)
4 | C[C@@H](O)[C@@H]1NC(=O)[C@H](Cc2ccccc2)NC(=O)[C@@H](NC(=O)[C@H](CCCCN)NC(=O)[C@@H](N)CCCCN)CSSC[C@@H](C(=O)NCC(=O)O)NC(=O)[C@H](CCCCN)NC(=O)[C@H](CCCNC(=N)N)NC(=O)[C@H](Cc2ccc(O)cc2)NC(=O)[C@H](CC(N)=O)NC(=O)[C@H](CCCCN)NC(=O)CNC(=O)[C@H](CCCNC(=N)N)NC(=O)[C@H](Cc2c[nH]c3ccccc23)NC(=O)[C@H](CCCCN)NC(=O)[C@H](Cc2c[nH]c3ccccc23)NC1=O [SEQ.ID.NO.: 6, Lys*Lys*Cys*Phe*Thr*Trp*Lys*Trp*Arg*Gly*Lys*Asn*Tyr*Arg*Lys*Cys*Gly*] (H-KKCFTWKWRGKNYRKCG-OH; disulfide 3-16; N-terminus and C-terminus assumed) | – | – | 0.4 µg/mL (≈ 0.183 µM) | 1.81 µg/mL (≈ 0.827 µM)
5 | FFCGNKRWRGNYQGSCK [Peptide P127, reference compound] | inactive | inactive | – | –
6 | CC(C)C[C@H](NC(=O)[C@@H]1CSSC[C@H](NC(=O)CNC(=O)[C@@H](N)CCCNC(=N)N)C(=O)N[C@@H](Cc2c[nH]c3ccccc23)C(=O)N[C@@H](CCCNC(=N)N)C(=O)N[C@@H](Cc2c[nH]c3ccccc23)C(=O)N[C@@H](CCCCN)C(=O)N[C@@H](Cc2c[nH]c3ccccc23)C(=O)N[C@@H](CCCNC(=N)N)C(=O)NCC(=O)N[C@@H](C(C)C)C(=O)N[C@@H](Cc2c[nH]c3ccccc23)C(=O)N[C@@H](Cc2ccc(O)cc2)C(=O)N[C@@H](CCCCN)C(=O)N[C@@H](CCCCN)C(=O)N1)C(=O)O [SEQ.ID.NO.: 7, Arg*Gly*Cys*Trp*Arg*Trp*Lys*Trp*Arg*Gly*Val*Trp*Tyr*Lys*Lys*Cys*Leu*] (H-RGCWRWKWRGVWYKKCL-OH; disulfide 3-16; N-terminus and C-terminus assumed) | – | – | 3.4 µg/mL (≈ 1.47 µM) | 7.81 µg/mL (≈ 3.38 µM)
7 | ANCWTRKIRGVVGVSCG [Peptide P195, reference compound] | inactive | inactive | – | –
8 | CC[C@H](C)[C@H](N)C(=O)N[C@@H](CCCNC(=N)N)C(=O)N[C@H]1CSSC[C@@H](C(=O)N[C@@H](CC(C)C)C(=O)O)NC(=O)[C@H](CCCCN)NC(=O)[C@H](CCCCN)NC(=O)[C@H](Cc2c[nH]c3ccccc23)NC(=O)[C@H](CCC(N)=O)NC(=O)[C@H](Cc2c[nH]cn2)NC(=O)CNC(=O)[C@H](CCCNC(=N)N)NC(=O)[C@H](Cc2ccc(O)cc2)NC(=O)[C@H](CC(N)=O)NC(=O)[C@H](Cc2c[nH]c3ccccc23)NC(=O)[C@H]([C@@H](C)O)NC(=O)[C@H](C)NC1=O [SEQ.ID.NO.: 10, Ile*Arg*Cys*Ala*Thr*Trp*Asn*Tyr*Arg*Gly*His*Gln*Trp*Lys*Lys*Cys*Leu*] (H-IRCATWNYRGHQWKKCL-OH; disulfide 3-16; N-terminus and C-terminus assumed) | – | – | 12.08 µg/mL (≈ 5.59 µM) | 24.6 µg/mL (≈ 11.4 µM)
9 | CC[C@H](C)[C@H](NC(=O)[C@H](C)N)C(=O)N[C@H]1CSSC[C@@H](C(=O)N[C@@H](CCCCN)C(=O)O)NC(=O)[C@H](C)NC(=O)[C@H](CCCCN)NC(=O)[C@H](Cc2c[nH]c3ccccc23)NC(=O)[C@H](CCCCN)NC(=O)[C@H](Cc2c[nH]cn2)NC(=O)CNC(=O)[C@H](CCCNC(=N)N)NC(=O)[C@H](Cc2ccc(O)cc2)NC(=O)[C@H](CCCCN)NC(=O)[C@H](Cc2c[nH]c3ccccc23)NC(=O)[C@H]([C@@H](C)O)NC(=O)[C@H](CCCNC(=N)N)NC1=O [SEQ.ID.NO.: 4, Ala*Ile*Cys*Arg*Thr*Trp*Lys*Tyr*Arg*Gly*His*Lys*Trp*Lys*Ala*Cys*Lys*] (H-AICRTWKYRGHKWKACK-OH; disulfide 3-16; N-terminus and C-terminus assumed) | – | – | 1.14 µg/mL (≈ 0.534 µM) | 17.37 µg/mL (≈ 8.14 µM)
10 | N=C(N)NCCC[C@@H]1NC(=O)[C@H](Cc2ccccc2)NC(=O)[C@H](CCCNC(=N)N)NC(=O)[C@H](Cc2ccc(O)cc2)NC(=O)[C@@H]2CCCN2C(=O)[C@H](Cc2ccccc2)NC(=O)[C@@H](NC(=O)[C@H](CCCCN)NC(=O)[C@@H](N)CCCNC(=N)N)CSSC[C@@H](C(=O)N[C@@H](Cc2ccc(O)cc2)C(=O)O)NC(=O)[C@H](CCCCN)NC(=O)[C@H](CCCCN)NC(=O)[C@H](Cc2ccccc2)NC(=O)[C@H](CCCNC(=N)N)NC(=O)[C@H](CCCCN)NC(=O)CNC1=O [SEQ.ID.NO.: 5, Arg*Lys*Cys*Phe*Pro*Tyr*Arg*Phe*Arg*Gly*Lys*Arg*Phe*Lys*Lys*Cys*Tyr*] (H-RKCFPYRFRGKRFKKCY-OH; disulfide 3-16; N-terminus and C-terminus assumed) | – | – | 1.09 µg/mL (≈ 0.478 µM) | 1.08 µg/mL (≈ 0.473 µM)
11 | CC[C@H](C)[C@@H]1NC(=O)CNC(=O)[C@H](CCCNC(=N)N)NC(=O)[C@H](Cc2c[nH]c3ccccc23)NC(=O)[C@H]([C@@H](C)O)NC(=O)[C@H](Cc2c[nH]c3ccccc23)NC(=O)[C@H](CCCCN)NC(=O)[C@H](CC(C)C)NC(=O)[C@@H](NC(=O)[C@H](CC(N)=O)NC(=O)[C@@H](N)CCCNC(=N)N)CSSC[C@@H](C(=O)N[C@@H](CCCCN)C(=O)O)NC(=O)[C@H](CCCCN)NC(=O)[C@H](CC(C)C)NC(=O)[C@H](Cc2ccc(O)cc2)NC(=O)[C@H]([C@@H](C)O)NC1=O [SEQ.ID.NO.: 22, Arg*Asn*Cys*Leu*Lys*Trp*Thr*Trp*Arg*Gly*Ile*Thr*Tyr*Leu*Lys*Cys*Lys*] (H-RNCLKWTWRGITYLKCK-OH; disulfide 3-16; N-terminus and C-terminus assumed) | 1.08 µg/mL (≈ 0.498 µM) | 11.72 µg/mL (≈ 5.41 µM) | – | –

From patent publication US10421782B2, “Cyclic cationic peptides with antimicrobial activity” (I.C.F. S.R.L., priority 2012, dated 2019)
